Results on 24 compounds are retold here after US8354414B2, “Substituted bicyclic pyrimidines” (Cephalon, Inc, priority 2006, dated 2013).

SMILES strings stand for the structures. Like-named read-outs stand apart in the source and are kept apart here.

The target of data set [1] is T1, CDK5/GST-p25 (Homo sapiens, UniProt Q00535).
T1 construct: The final construct, encoding for full-length human CDK5; made in house; host or cells: Sf21 insect cells (baculovirus co-infection)
The data set can be described thus: Inhibition of CDK5/GST-p25 kinase activity (ELISA with time-resolved fluorescence readout). The format is biochemical. Put shortly:
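The substrate, GST-Rb(773-928), was immobilised on plates and phosphorylated for 20 min at 37 °C by 2 ng/ml CDK5/GST-p25 in HEPES pH 7.2 with 10 µM ATP and 10 mM MgCl2. Both proteins were human and co-expressed in insect cells. Ser-780 phosphorylation was read by europium time-resolved fluorescence and converted to IC50.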
In general terms: ELISA stands for enzyme-linked immunosorbent assay.

Data set [2] deals with T2, His6-GSK-3β (Homo sapiens, UniProt P49841).
T2 construct: made in house; host or cells: Sf21 insect cells (baculovirus)
The data set is described as follows: Inhibition of His6-GSK-3β kinase activity (ELISA-based format, time-resolved fluorescence readout). To be noted: read-out: GSK3β IC50. The format is biochemical. An outline of the steps:
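Plate-bound recombinant GST-Rb substrate was phosphorylated for 30 min at 37° C by baculovirus-expressed His6-GSK-3β (200 ng/ml) at 20 μM ATP, 10 mM MgCl2, 2.5% DMSO. Europium time-resolved fluorescence of anti-phospho-Ser780 Rb signal gave inhibition, fitted to IC50.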

T1 sequence (Q00535 whole entry): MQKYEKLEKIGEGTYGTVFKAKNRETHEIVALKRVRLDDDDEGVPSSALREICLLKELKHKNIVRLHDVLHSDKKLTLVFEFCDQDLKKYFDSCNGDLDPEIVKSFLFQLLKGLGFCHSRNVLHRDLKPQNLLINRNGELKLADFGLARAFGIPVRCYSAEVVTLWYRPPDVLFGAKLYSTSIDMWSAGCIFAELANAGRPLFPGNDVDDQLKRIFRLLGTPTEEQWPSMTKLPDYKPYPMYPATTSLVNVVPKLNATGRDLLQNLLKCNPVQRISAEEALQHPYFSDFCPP
T1 sequence (Q15078 108-307 partner limits assumed): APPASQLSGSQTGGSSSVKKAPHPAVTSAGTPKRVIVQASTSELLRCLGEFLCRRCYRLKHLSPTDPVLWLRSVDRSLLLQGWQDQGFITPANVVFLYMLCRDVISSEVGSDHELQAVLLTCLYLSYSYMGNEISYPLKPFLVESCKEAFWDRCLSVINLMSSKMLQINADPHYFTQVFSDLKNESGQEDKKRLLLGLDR
T2 sequence (P49841 2-419): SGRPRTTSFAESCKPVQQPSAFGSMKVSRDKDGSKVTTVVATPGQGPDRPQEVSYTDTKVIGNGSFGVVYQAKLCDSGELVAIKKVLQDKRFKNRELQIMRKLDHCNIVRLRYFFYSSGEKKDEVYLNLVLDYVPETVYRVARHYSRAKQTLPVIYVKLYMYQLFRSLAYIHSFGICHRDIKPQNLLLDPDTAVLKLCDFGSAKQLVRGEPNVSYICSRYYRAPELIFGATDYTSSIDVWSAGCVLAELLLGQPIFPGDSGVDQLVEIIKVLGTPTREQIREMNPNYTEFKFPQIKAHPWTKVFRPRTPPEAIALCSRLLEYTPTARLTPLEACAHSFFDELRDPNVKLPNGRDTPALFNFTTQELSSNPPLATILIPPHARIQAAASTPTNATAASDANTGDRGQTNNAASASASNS

In general, IC50 refers to the point on the concentration scale where inhibition reaches its midpoint. By melting point is commonly meant the temperature, or range, at which the solid turns liquid. As for `O=C1Nc2c(F)cc(F)cc2C1c1ncnc2nn(C3CCCC3)cc12` (stereo not drawn) [Example 35, 3-(2-Cyclopentyl-2H-pyrazolo[3,4-d]pyrimidin-4-yl)-5,7-difluoro-1,3-dihydro-indol-2-one], the melting point was 296 to 297 °C. Also, in data set [1] (numeric bounds), the IC50 is more than 3000 nM. Moreover, the IC50 in data set [2] (class symbols) lay in the range of 300 to 3000 nM.
For `CCCCCn1cc2c(C3C(=O)Nc4ccc(C#N)cc43)nc(NCc3ccncc3)nc2n1` (stereo not drawn) [Example 292, 2-Oxo-3-{2-pentyl-6-[(pyridin-4-ylmethyl)-amino]-2H-pyrazolo [3,4-d]pyrimidin-4-yl}-2,3-dihydro-1H-indole-5-carbonitrile], the melting point was 288 to 290 °C (dec.). The compound further yielded an IC50 in data set [1] (class symbols) of less than 300 nM. In addition, the IC50 in data set [2] (class symbols) is less than 300 nM.
Compound `CCOCCn1cc2c(C3C(=O)Nc4ccc(Br)cc43)nc(NC[C@@H](C)O)nc2n1` (stereo partly drawn) [Example 239, 5-Bromo-3-[2-(2-ethoxy-ethyl)-6-((R)-2-hydroxy-propylamino)-2H-pyrazolo[3,4-d]pyrimidin-4-yl]-1,3-dihydro-indol-2-one] registered a melting point of 298 to 300 °C. Moreover, the IC50 in data set [1] (class symbols) is less than 300 nM. Further, the IC50 in data set [2] (class symbols) is less than 300 nM.
With `CCCn1cc2c(C3C(=O)Nc4ccc(Br)cc43)nc(NCCc3cccnc3)nc2n1` (stereo not drawn) [Example 189, 5-Bromo-3-[2-propyl-6-(2-pyridin-3-yl-ethylamino)-2H-pyrazolo [3,4-d]pyrimidin-4-yl]-1,3-dihydro-indol-2-one], the melting point lay within 294 to 297 °C. The compound further returned an IC50 in data set [1] (class symbols) of less than 300 nM. Also, the half-maximal inhibitory concentration (IC50) in data set [2] (class symbols) was less than 300 nM.
`C=CCn1cc2c(C3C(=O)Nc4ccc(C#N)cc43)ncnc2n1` (stereo not drawn) [Example 76, 3-(2-Allyl-2H-pyrazolo[3,4-d]pyrimidin-4-yl)-2-oxo-2,3-dihydro-1H-indole-5-carbonitrile]: the melting point is more than 300 °C. In addition, the IC50 in data set [1] (class symbols) is less than 300 nM. In addition, in data set [2] (class symbols), the IC50 was in the range of 300 to 3000 nM.
For `CCCn1cc2c(C3C(=O)Nc4ccc(C#N)cc43)nc(NCc3ccncc3)nc2n1` (stereo not drawn) [Example 186, 2-Oxo-3-{2-propyl-6-[(pyridine-4-ylmethyl)-amino]-2H-pyrazolo [3,4-d]pyrimidin-4-yl}-2,3-dihydro-1H-indole-5-carbonitrile], in that order: 299 to 302 °C, less than 300 nM and less than 300 nM.
As for `O=C1Nc2ccc(C(F)(F)F)cc2C1c1nc(Cl)nc2nn(C3CCCC3)cc12` (stereo not drawn) [Example 153, 3-(6-Chloro-2-cyclopentyl-2H-pyrazolo [3,4-d]pyrimidin-4-yl)-5-trifluoromethyl-1,3-dihydro-indol-2-one], the melting point is more than 300 °C. Further, in data set [1] (class symbols), the IC50 was more than 10000 nM. The IC50 in data set [2] (numeric bounds) was more than 3000 nM.
On to `O=C1Nc2cc(F)ccc2C1c1ncnc2nn(C3CCCCC3)cc12` (stereo not drawn) [Example 50, 3-(2-cyclohexyl-2H-pyrazolo[3,4-d]pyrimidin-4-yl)-6-fluoro-1,3-dihydro-indol-2-one], for which the melting point was 297 to 300 °C. In data set [1] (class symbols), this compound returned an IC50 of 300 to 3000 nM. In addition, the half-maximal inhibitory concentration (IC50) in data set [2] (class symbols) was 300 to 3000 nM.
In turn, `O=C1Nc2c(cc([N+](=O)[O-])cc2[N+](=O)[O-])C1c1ncnc2nn(C3CCCC3)cc12` (stereo not drawn) [Example 43, 3-(2-Cyclopentyl-2H-pyrazolo[3,4-d]pyrimidin-4-yl)-5,7-dinitro-1,3-dihydro-indol-2-one] came in with a melting point of more than 300 °C. Moreover, in data set [1] (class symbols), the IC50 lay within 300 to 3000 nM. In data set [2] (class symbols), the IC50 was 300 to 3000 nM.
`Cn1ncc2c(C3C(=O)Nc4ccc(Br)cc43)ncnc21` (stereo not drawn) [Example 85, 5-Bromo-3-(1-methyl-1H-pyrazolo[3,4-d]pyrimidin-4-yl)-1,3-dihydro-indol-2-one] came in with a melting point of more than 350 °C. Further, the IC50 in data set [1] (class symbols) is less than 300 nM. Also, in data set [2] (numeric bounds), the IC50 is more than 3000 nM.
Regarding `O=C1Nc2ccc(Br)cc2C1c1ncnc2nn(C3CCCC3)cc12` (stereo not drawn) [Example 31, 5-Bromo-3-(2-Cyclopentyl-2H-pyrazolo[3,4-d]pyrimidin-4-yl)-2-oxo-1,3-dihydro-indol-2-one], the melting point was 319 to 322 °C (dec.). Moreover, the IC50 in data set [1] (class symbols) was less than 300 nM. In addition, the IC50 in data set [2] (class symbols) is less than 300 nM.
`O=C1Nc2ccc(C(F)(F)F)cc2C1c1nc(NCc2ccncc2)nc2nn(C3CCCC3)cc12` (stereo not drawn) [Example 246, 3-{2-Cyclopentyl-6-[(pyridin-4-ylmethyl)-amino]-2H-pyrazolo[3,4-d]pyrimidin-4-yl}-5-trifluoromethyl-1,3-dihydro-indol-2-one] returned a melting point of more than 300 °C. In addition, the IC50 in data set [1] (numeric bounds) was more than 3000 nM. Also, the IC50 in data set [2] (class symbols) was less than 300 nM.
`CNCCNc1nc(C2C(=O)Nc3ccc(Br)cc32)c2cn(C3CCCC3)nc2n1.Cl` (stereo not drawn) [Example 378, 5-Bromo-3-[2-cyclopentyl-6-(2-methylamino-ethylamino)-2H-pyrazolo [3,4-d]pyrimidin-4-yl]-1,3-dihydro-indol-2-one hydrochloride salt] displayed a melting point of 201 to 204 °C. The compound also displayed an IC50 in data set [1] (numeric bounds) of more than 3000 nM. Further, the half-maximal inhibitory concentration (IC50) in data set [2] (class symbols) fell in the range of 300 to 3000 nM.
Consider `Cn1ncc2c(C3C(=O)Nc4ccc(C#N)cc43)ncnc21` (stereo not drawn) [Example 108, 3-(1-methyl-1H-pyrazolo[3,4-d]pyrimidin-4-yl)-2-oxo-2,3-dihydro-1H-indole-5-carbonitrile], for which the melting point was > 300 °C (dec.). Further, the IC50 in data set [1] (class symbols) is less than 300 nM. Besides, the IC50 in data set [2] (class symbols) is more than 10000 nM.
In the same order, the values of `CC(C)Cn1cc2c(C3C(=O)Nc4ccc(Cl)cc43)nc(NCCN(C)C)nc2n1` (stereo not drawn) [Example 270, 5-Chloro-3-[6-(2-dimethylamino-ethylamino)-2-isobutyl-2H-pyrazolo[3,4-d]pyrimidin-4-yl]-1,3-dihydro-indol-2-one] are 264 to 265.5 °C, 300 to 3000 nM and less than 300 nM.
For `O=C1Nc2ccccc2C1c1nc(NCc2ccncc2)nc2nn(C3CCCC3)cc12` (stereo not drawn) [Example 241, 3-{2-Cyclopentyl-6-[(pyridin-4-ylmethyl)-amino]-2H-pyrazolo[3,4-d]pyrimidin-4-yl}-1,3-dihydro-indol-2-one], in that order: 198 to 200 °C, 300 to 3000 nM and less than 300 nM.
In the same order, the values of `CNCCCNc1nc(C2C(=O)Nc3ccc(Br)cc32)c2cn(CC(C)C)nc2n1` (stereo not drawn) [Example 267, 5-Bromo-3-[2-isobutyl-6-(3-methylamino-propylamino)-2H-pyrazolo[3,4-d]pyrimidin-4-yl]-1,3-dihydro-indol-2-one] are 240 to 259 °C, less than 300 nM and less than 300 nM.
As to `COCCn1cc2c(C3C(=O)Nc4ccc(Br)cc43)nc(NCCCN(C)C)nc2n1` (stereo not drawn) [Example 233, 5-Bromo-3-[6-(3-dimethylamino-propylamino)-2-(2-methoxy-ethyl)-2H-pyrazolo [3,4-d]pyrimidin-4-yl]-1,3-dihydro-indol-2-one], the melting point is 297 to 298 °C. The same compound displayed an IC50 in data set [1] (class symbols) of less than 300 nM. Also, in data set [2] (class symbols), the half-inhibitory concentration (IC50) is less than 300 nM.
Compound `O=C1Nc2cc(F)ccc2C1c1ncnc2nn(C3CCCC3)cc12` (stereo not drawn) [Example 41, 3-(2-Cyclopentyl-2H-pyrazolo[3,4-d]pyrimidin-4-yl)-6-fluoro-1,3-dihydro-indol-2-one] had a melting point of 258 to 263 °C. Also, in data set [1] (class symbols), the half-maximal inhibitory concentration (IC50) was in the range of 300 to 3000 nM. Moreover, the IC50 in data set [2] (class symbols) lay in the range of 300 to 3000 nM.
As to `O=C1Nc2c(cc([N+](=O)[O-])cc2[N+](=O)[O-])C1c1ncnc2c1cnn2C1CCCC1` (stereo not drawn) [Example 60, 3-(1-cyclopentyl-1H-pyrazolo[3,4-d]pyrimidin-4-yl)-5,7-dinitro-1,3-dihydro-indol-2-one], the melting point lay within 242 to 246 °C. In data set [1] (class symbols), this compound returned an IC50 of more than 10000 nM. Further, in data set [2] (class symbols), the IC50 was more than 10000 nM.
Compound `COCCNc1nc(C2C(=O)Nc3ccc(Cl)cc32)c2cn(C3CCCC3)nc2n1` (stereo not drawn) [Example 277, 5-Chloro-3-[2-cyclopentyl-6-(2-methyoxy-ethylamino)-2H-pyrazolo[3,4-d]pyrimidin-4-yl]-1,3-dihydro-indol-2-one] gave a melting point of 249 to 259 °C. This compound had an IC50 in data set [1] (class symbols) of less than 300 nM. In addition, the IC50 in data set [2] (class symbols) is less than 300 nM.
`O=C1Nc2ccc(C(F)(F)F)cc2C1c1nc(NCCc2cccnc2)nc2nn(C3CCCC3)cc12` (stereo not drawn) [Example 160, 3-[2-cyclopentyl-6-(2-pyridin-3-yl-ethylamino)-2H-pyrazolo[3,4-d]pyrimidin-4-yl]-5-trifluoromethyl-1,3-dihydro-indol-2-one]: the melting point fell in the range of 278 to 280 °C. The compound also returned an IC50 in data set [1] (class symbols) of more than 10000 nM. Also, the IC50 in data set [2] (class symbols) was less than 300 nM.
For `CCOCCn1cc2c(C3C(=O)Nc4ccc(Cl)cc43)nc(NC[C@H](C)O)nc2n1` (stereo partly drawn) [Example 219, 5-Chloro-3-[2-(2-ethoxy-ethyl)-6-((S)-2-hydroxy-propylamino)-2H-pyrazolo [3,4-d]pyrimidin-4-yl]-1,3-dihydro-indol-2-one], in that order: more than 300 °C, less than 300 nM and less than 300 nM.
With `O=C1Nc2cc(Cl)ccc2C1c1ncnc2c1cnn2C1CCCC1` (stereo not drawn) [Example 59, 6-Chloro-3-(1-cyclopentyl-1H-pyrazolo[3,4-d]pyrimidin-4-yl)-1,3-dihydro-indol-2-one], the melting point was in the range of 288 to 291 °C. In addition, the IC50 in data set [1] (class symbols) was more than 10000 nM. The IC50 in data set [2] (class symbols) is 300 to 3000 nM.
